This is an account of results in patent US20100119483A1, “PEPTIDE VIRAL ENTRY INHIBITORS” (Schering Corporation, priority 2004, published 2010).

The subject of one experiment is HCV pseudoparticles. The experiment is described as follows: HCV pseudoparticle (HCVpp) entry assay in Huh7 hepatoma cells, luciferase readout. It is filed as cell-based, hepatitis C virus. Particulars: peptide library screen, first screened at 100 ug/ml; cell entry inhibition vs uninhibited control. In short, it runs like this: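 Pseudoparticles carrying HCV E1/E2 on an HIV luciferase backbone were produced in 293T cells; peptide was pre-incubated 1 h at 37 °C with Huh7 cells, then virus added and luciferase read after 72 h. Dose-response used 10-point 3-fold titration from 100 ug/ml; envelope-less particles controlled non-specific entry.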

Experiment [1] relates to amphotropic murine leukemia virus. The experiment is described as follows: AMLV pseudotyped virus entry counter-screen, same infection protocol. It is filed as cell-based. The conditions noted are these: peptide library screen; cell entry inhibition vs uninhibited control. Put shortly: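 Huh7 hepatoma cells pre-incubated with peptide 1 h at 37 °C, then infected with AMLV pseudotyped virus and cultured 72 h at 37 °C, 5% CO2 before luciferase read-out. Peptides screened at 100 ug/ml, then 10-point 3-fold titrations from 100 ug/ml.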
Background: The purpose of a counterscreen is to sort out artefacts and off-target activity.

Turning to “N-W-S-P-T-A-A-L-V-V-S-Q-L-L-R-I [SEQ ID NO: 22]”, the HCVpp % inh in the experiment with HCV pseudoparticles was 54%. Also, the AMLVpp % inh in experiment [1] is listed as −11%.

For “P-C-G-I-V-P-A-A-Q-V-C-G-P-V-Y-C [SEQ ID NO: 46]”, the HCVpp % inh in the experiment with HCV pseudoparticles amounted to 29%. Further, in experiment [1], the AMLVpp % inh is reported as −2%.

In the case of “P-C-T-V-N-F-T-I-F-K-V-R-M-Y-V-G (PCTVNFTIFKVRMYVG; HCV peptide) [SEQ ID NO: 64]”, the HCVpp % inh in the experiment with HCV pseudoparticles was −2%. Besides, the AMLVpp % inh in experiment [1] is recorded as −30%.

For “P-R-C-L-V-H-Y-P-Y-R-L-W-H-Y-P-C (PRCLVHYPYRLWHYPC; HCV peptide) [SEQ ID NO: 62]”, in the experiment with HCV pseudoparticles, the HCVpp % inh came out at 10%. Further, the AMLVpp % inh in experiment [1] is listed as −42%.

For the substance “P-Y-R-L-W-H-Y-P-C-T-V-N-F-T-I-F (PYRLWHYPCTVNFTIF; HCV peptide) [SEQ ID NO: 63]”, the HCVpp % inh in the experiment with HCV pseudoparticles came out at 44%. The AMLVpp % inh in experiment [1] amounted to 3%.

For “Q-K-I-Q-L-V-N-T-N-G-S-W-H-I-N-R (QKIQLVNTNGSWHINR; HCV peptide) [SEQ ID NO: 34]”, the HCVpp % inh with HCV pseudoparticles is recorded as 6%. The AMLVpp % inh in experiment [1] is listed as 13%.

Consider “R-F-G-V-P-T-Y-S-W-G-E-N-E-T-D-V [SEQ ID NO: 50]”, for which the HCVpp % inh in the experiment on HCV pseudoparticles is 34%. In experiment [1], the AMLVpp % inh was 33%.

Turning to “R-H-E-T-V-Q-D-C-N-C-S-I-Y-P-G-H [SEQ ID NO: 18]”, the HCVpp % inh with HCV pseudoparticles is 5%. In addition, the AMLVpp % inh in experiment [1] was 17%.

On to “R-I-P-Q-A-V-V-D-M-V-A-G-A-H-W-G [SEQ ID NO: 24]”, for which, in the experiment on HCV pseudoparticles, the HCVpp % inh was 25%. Moreover, the AMLVpp % inh in experiment [1] is −2%.

Regarding “S-C-S-P-I-D-A-F-A-Q-G-W-G-P-I-T [SEQ ID NO: 41]”, the HCVpp % inh in the experiment on HCV pseudoparticles is reported as −11%. The AMLVpp % inh in experiment [1] was 25%.

Take “S-S-D-Q-R-P-Y-C-W-H-Y-A-P-R-P-C [SEQ ID NO: 44]”: the HCVpp % inh with HCV pseudoparticles is 14%. Besides, the AMLVpp % inh in experiment [1] is 15%.

Turning to “S-T-T-E-W-Q-V-L-P-C-S-F-T-T-L-P [SEQ ID NO: 71]”, in the experiment on HCV pseudoparticles, the HCVpp % inh was 44%. In addition, the AMLVpp % inh in experiment [1] stood at 18%.

As for “S-V-F-L-V-A-Q-L-F-T-F-S-P-R-R-H [SEQ ID NO: 16]”, the HCVpp % inh in the experiment on HCV pseudoparticles amounted to 3%. Also, the AMLVpp % inh in experiment [1] is −148%.

“S-W-G-E-N-E-T-D-V-L-L-L-N-N-T-R [SEQ ID NO: 51]”: the HCVpp % inh with HCV pseudoparticles is 23%. In experiment [1], the AMLVpp % inh turned out to be 34%.

For “T-C-G-G-P-P-C-N-I-G-G-I-C-N-K-T [SEQ ID NO: 56]”, the HCVpp % inh in the experiment with HCV pseudoparticles is 53%. The AMLVpp % inh in experiment [1] is listed as 22%.

As for “T-G-G-T-N-A-K-N-T-L-G-I-T-S-L-F [SEQ ID NO: 31]”, the HCVpp % inh with HCV pseudoparticles is reported as 41%. In experiment [1], the AMLVpp % inh is given as −2%.

As to “T-N-G-S-W-H-I-N-R-T-A-L-N-C-N-D (TNGSWHINRTALNCND; HCV peptide) [SEQ ID NO: 35]”, the HCVpp % inh in the experiment on HCV pseudoparticles was found to be 29%. Moreover, in experiment [1], the AMLVpp % inh amounted to 30%.

As for “T-R-G-E-R-C-N-L-E-D-R-D-R-S-E-L [SEQ ID NO: 68]”, the HCVpp % inh in the experiment with HCV pseudoparticles is given as 13%. Also, the AMLVpp % inh in experiment [1] is −7%.

In the case of “T-R-P-P-Q-G-N-W-F-G-C-T-W-M-N-S [SEQ ID NO: 53]”, the HCVpp % inh in the experiment on HCV pseudoparticles is 59%. Besides, the AMLVpp % inh in experiment [1] is given as −42%.

With “T-T-T-I-R-R-H-V-D-L-L-V-G-A-A-A [SEQ ID NO: 12]”, in the experiment with HCV pseudoparticles, the HCVpp % inh is listed as 31%. In experiment [1], the AMLVpp % inh is −5%.

Consider “V-C-A-C-L-W-M-M-L-L-I-A-Q-A-E-A [SEQ ID NO: 80]”, for which, in the experiment on HCV pseudoparticles, the HCVpp % inh came to 16%. In experiment [1], the AMLVpp % inh is 7%.

As for “V-D-G-G-T-Y-V-T-G-G-T-M-A-K-N-T [SEQ ID NO: 30]”, the HCVpp % inh in the experiment on HCV pseudoparticles came out at 2%. In experiment [1], the AMLVpp % inh was −9%.

On to “V-D-L-L-V-G-A-A-A-L-C-S-A-M-Y-V [SEQ ID NO: 13]”, for which the HCVpp % inh in the experiment with HCV pseudoparticles amounted to 39%. In addition, in experiment [1], the AMLVpp % inh was −13%.

For “V-G-G-V-E-H-R-L-E-A-A-C-N-W-T-R (VGGVEHRLEAACNWTR; HCV peptide) [SEQ ID NO: 66]”, the HCVpp % inh in the experiment with HCV pseudoparticles is listed as 22%. Also, the AMLVpp % inh in experiment [1] is on record as 34%.
